From PubChem BioAssay (NCI)
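Exposure lasted 48 hours, with cells grown in 96-well plates and compounds tested at five concentrations. GI50 = concentration required for 50% inhibition of growth. Definition used: TGI = concentration required for complete inhibition of growth.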

How the values were obtained:
Assay in all cases: NCI-60 cell line screen, 48 h
786-0 renal = test system: 786-0 renal
A498 renal = test system: A498 renal
A549 NSCLC = test system: A549 NSCLC
ACHN renal = test system: ACHN renal
BT-549 breast = test system: BT-549 breast
CAKI-1 renal = test system: CAKI-1 renal
CCRF-CEM leukemia = test system: CCRF-CEM leukemia
COLO 205 colon = test system: COLO 205 colon
DU-145 prostate = test system: DU-145 prostate
EKVX NSCLC = test system: EKVX NSCLC
HCC-2998 colon = test system: HCC-2998 colon
HCT-116 colon = test system: HCT-116 colon
HCT-15 colon = test system: HCT-15 colon
HL-60(TB) leukemia = test system: HL-60(TB) leukemia
HOP-62 NSCLC = test system: HOP-62 NSCLC
HOP-92 NSCLC = test system: HOP-92 NSCLC
HS 578T breast = test system: HS 578T breast
HT29 colon = test system: HT29 colon
IGROV1 ovarian = test system: IGROV1 ovarian
K-562 leukemia = test system: K-562 leukemia
KM12 colon = test system: KM12 colon
LOX IMVI melanoma = test system: LOX IMVI melanoma
M14 melanoma = test system: M14 melanoma
MALME-3M melanoma = test system: MALME-3M melanoma
MCF7 breast = test system: MCF7 breast
MDA-MB-231 breast = test system: MDA-MB-231 breast
MDA-MB-435 = test system: MDA-MB-435
MDA-MB-468 breast = test system: MDA-MB-468 breast
MOLT-4 leukemia = test system: MOLT-4 leukemia
NCI-H226 lung = test system: NCI-H226 lung
NCI-H23 lung = test system: NCI-H23 lung
NCI-H460 lung = test system: NCI-H460 lung
NCI-H522 lung = test system: NCI-H522 lung
NCI/ADR-RES ovarian = test system: NCI/ADR-RES ovarian
OVCAR-3 ovarian = test system: OVCAR-3 ovarian
OVCAR-4 ovarian = test system: OVCAR-4 ovarian
OVCAR-5 ovarian = test system: OVCAR-5 ovarian
OVCAR-8 ovarian = test system: OVCAR-8 ovarian
PC-3 prostate = test system: PC-3 prostate
RPMI-8226 leukemia = test system: RPMI-8226 leukemia
RXF 393 renal = test system: RXF 393 renal
SF-268 CNS = test system: SF-268 CNS
SF-295 CNS = test system: SF-295 CNS
SF-539 CNS = test system: SF-539 CNS
SK-MEL-2 melanoma = test system: SK-MEL-2 melanoma
SK-MEL-28 melanoma = test system: SK-MEL-28 melanoma
SK-MEL-5 melanoma = test system: SK-MEL-5 melanoma
SK-OV-3 ovarian = test system: SK-OV-3 ovarian
SN12C renal = test system: SN12C renal
SNB-19 CNS = test system: SNB-19 CNS
SNB-75 CNS = test system: SNB-75 CNS
SR leukemia = test system: SR leukemia
SW-620 colon = test system: SW-620 colon
T-47D breast = test system: T-47D breast
TK-10 renal = test system: TK-10 renal
U251 CNS = test system: U251 CNS
UACC-257 melanoma = test system: UACC-257 melanoma
UACC-62 melanoma = test system: UACC-62 melanoma
UO-31 renal = test system: UO-31 renal

## CC1(C)CC[C@]2(C(=O)Nc3ccccc3)CC[C@]3(C)C(=CC[C@@H]4[C@@]5(C)CC[C@H](N)C(C)(C)[C@@H]5CC[C@]43C)[C@H]2C1
786-0 renal
  GI50: 13.8 µM
  TGI: 29 µM
A498 renal
  GI50: 13.2 µM
  TGI: 27.1 µM
A549 NSCLC
  GI50: 17.4 µM
  TGI: 41.6 µM
ACHN renal
  GI50: 15.9 µM
  TGI: 29.5 µM
BT-549 breast
  GI50: 18.3 µM
  TGI: 32.9 µM
CAKI-1 renal
  GI50: 14.6 µM
  TGI: 28.5 µM
CCRF-CEM leukemia
  GI50: 14.6 µM
  TGI: 34.5 µM
COLO 205 colon
  GI50: 15.6 µM
  TGI: 35.7 µM
DU-145 prostate
  GI50: 16.1 µM
  TGI: 30.6 µM
EKVX NSCLC
  GI50: 15.6 µM
  TGI: 30.4 µM
HCC-2998 colon
  GI50: 12 µM
  TGI: 25.1 µM
HCT-116 colon
  GI50: 9.26 µM
  TGI: 26.2 µM
HCT-15 colon
  GI50: 13.6 µM
  TGI: 27.9 µM
HL-60(TB) leukemia
  GI50: 10 µM
  TGI: 37.5 µM
HOP-62 NSCLC
  GI50: 15.8 µM
  TGI: 32.4 µM
HOP-92 NSCLC
  GI50: 11.5 µM
  TGI: 26.1 µM
HS 578T breast
  GI50: 16.2 µM
  TGI: 35.2 µM
HT29 colon
  GI50: 17.5 µM
  TGI: 39.9 µM
IGROV1 ovarian
  GI50: 15.8 µM
  TGI: 30.2 µM
K-562 leukemia
  GI50: 4.07 µM
  TGI: > 100 µM
KM12 colon
  GI50: 17.3 µM
  TGI: 32.4 µM
LOX IMVI melanoma
  GI50: 4.31 µM
  TGI: 16.2 µM
M14 melanoma
  GI50: 17.6 µM
  TGI: 33.8 µM
MALME-3M melanoma
  GI50: 16.4 µM
  TGI: 30.3 µM
MCF7 breast
  GI50: 3.51 µM
  TGI: 14.7 µM
MDA-MB-231 breast
  GI50: 16.1 µM
  TGI: 30 µM
MDA-MB-435
  GI50: 14.8 µM
  TGI: 29 µM
MDA-MB-468 breast
  GI50: 13.3 µM
  TGI: 28.1 µM
MOLT-4 leukemia
  GI50: 15.3 µM
  TGI: 42 µM
NCI-H226 lung
  GI50: 14.9 µM
  TGI: 31.8 µM
NCI-H23 lung
  GI50: 16.8 µM
  TGI: 31.5 µM
NCI-H460 lung
  GI50: 13.4 µM
  TGI: 28 µM
NCI-H522 lung
  GI50: 16.2 µM
  TGI: 32.4 µM
NCI/ADR-RES ovarian
  GI50: 16.2 µM
  TGI: 31.9 µM
OVCAR-3 ovarian
  GI50: 13.2 µM
  TGI: 26.6 µM
OVCAR-4 ovarian
  GI50: 15.8 µM
  TGI: 31.4 µM
OVCAR-5 ovarian
  GI50: 16.2 µM
  TGI: 30 µM
OVCAR-8 ovarian
  GI50: 18.2 µM
  TGI: 38.3 µM
PC-3 prostate
  GI50: 15.9 µM
  TGI: 31.8 µM
RPMI-8226 leukemia
  GI50: 19 µM
  TGI: 80 µM
RXF 393 renal
  GI50: 10.2 µM
  TGI: 24 µM
SF-268 CNS
  GI50: 16.6 µM
  TGI: 33.5 µM
SF-295 CNS
  GI50: 15.6 µM
  TGI: 30.4 µM
SF-539 CNS
  GI50: 15.4 µM
  TGI: 29.1 µM
SK-MEL-2 melanoma
  GI50: 17.1 µM
  TGI: 32.3 µM
SK-MEL-28 melanoma
  GI50: 17.5 µM
  TGI: 31.7 µM
SK-MEL-5 melanoma
  GI50: 15.5 µM
  TGI: 29 µM
SK-OV-3 ovarian
  GI50: 17.2 µM
  TGI: 33.6 µM
SN12C renal
  GI50: 16.5 µM
  TGI: 30.6 µM
SNB-19 CNS
  GI50: 16.4 µM
  TGI: 30.6 µM
SNB-75 CNS
  GI50: 12.2 µM
  TGI: 25.5 µM
SR leukemia
  GI50: 2.84 µM
  TGI: 13.3 µM
SW-620 colon
  GI50: 5.47 µM
  TGI: 20.3 µM
T-47D breast
  GI50: 14.9 µM
  TGI: 34.7 µM
TK-10 renal
  GI50: 17.4 µM
  TGI: 33.3 µM
U251 CNS
  GI50: 17.5 µM
  TGI: 35.1 µM
UACC-257 melanoma
  GI50: 15.8 µM
  TGI: 32.2 µM
UACC-62 melanoma
  GI50: 16.7 µM
  TGI: 30.6 µM
UO-31 renal
  GI50: 13.9 µM
  TGI: 27.1 µM
